ChEMBL document CHEMBL3576821, “A potent antimicrobial compound isolated from Clathria cervicornis” (2015)
Converted amounts (≈) assume the structure as drawn.

Tests used:
Type in all cases: functional
[1] = system: Acinetobacter baumannii; assay: Antimicrobial activity against Acinetobacter baumannii ATCC 19606 assessed as bacterial growth inhibition after 24 hrs by standard broth microdilution method; details: ATCC 19606, 24 h
[2] = system: Pseudomonas aeruginosa; assay: Antimicrobial activity against Pseudomonas aeruginosa ATCC 10145 assessed as bacterial growth inhibition after 24 hrs by standard broth microdilution method; details: ATCC 10145, 24 h
[3] = system: Klebsiella pneumoniae; assay: Antimicrobial activity against Klebsiella pneumoniae ATCC 13883 assessed as bacterial growth inhibition after 24 hrs by standard broth microdilution method; details: ATCC 13883, 24 h

Row | SMILES | MIC [1] [µg/mL] | MIC [2] [µg/mL] | MIC [3] [µg/mL]
1 | O=C(O)c1cn(C2CC2)c2cc(N3CCNCC3)c(F)cc2c1=O [CIPROFLOXACIN] | 2 (≈ 6.04 µM) | 1 (≈ 3.02 µM) | 1 (≈ 3.02 µM)
2 | CC[C@H]1CCCC[C@@]2(C[C@@H]3CC[C@@H]4[C@H](C(=O)OCCCCCCCCCCCCCCCC(=O)N(CCCN)C[C@@H](O)CCN)[C@]5(CCC[C@@H](C)O5)N=C(N2)N34)O1 [CRAMBESCIDIN 800] | 2 (≈ 2.49 µM) | 1 (≈ 1.25 µM) | 1 (≈ 1.25 µM)
3 | C[C@H]1COc2c(N3CCN(C)CC3)c(F)cc3c(=O)c(C(=O)O)cn1c23.C[C@H]1COc2c(N3CCN(C)CC3)c(F)cc3c(=O)c(C(=O)O)cn1c23.O [LEVOFLOXACIN] | 1 |  | 
4 | CN(C)[C@@H]1C(O)=C(C(N)=O)C(=O)[C@@]2(O)C(O)=C3C(=O)c4c(O)cccc4[C@@](C)(O)[C@H]3C[C@@H]12 [TETRACYCLINE] | 2 (≈ 4.5 µM) | 1 (≈ 2.25 µM) | 1 (≈ 2.25 µM)
